Structures can show the parent of a compound that is named as a salt. Where two headings read alike, the source gives them in different places.

For assay [1], the target named is T1, SARS-CoV-2 PLpro (nsp3 1564–1878) (Severe acute respiratory syndrome coronavirus 2, UniProt P0DTD1). In words: biochemical. The settings on record: read-out: % of control remaining. The arrangement: FRET-quenched peptide (Pro3) cleavage by PLpro, 10 min pre-incubation, slope over 20 min, normalised to no-compound control.
The target of assay [2] is T1, SARS-CoV-2 PLpro (nsp3 1564–1878). As to the kind of experiment: biochemical. The arrangement: FRET-quenched peptide (Pro3) cleavage by PLpro, 10 min pre-incubation, slope over 20 min, normalised to no-compound control. The settings on record: read-out: % of control remaining. This is another data set of the same source.

For `O=C(NOCC1CC1)c1ccc(F)c(F)c1Nc1ccc(I)cc1Cl` [CI-1040], in assay [1] (Well no.=2741, low concentration screen), the remaining activity at 1.25 µM was found to be 100%. Moreover, in assay [2] (Well no.=2741, high concentration screen), the remaining activity at 3.75 µM was 102%.
Consider `O=C1NCCCc2c1oc1ccc(O)cc21` [CID755673], for which, in assay [1] (Well no.=6214, low concentration screen), the remaining activity at 1.25 µM came to 104%. Moreover, in assay [2] (Well no.=6214, high concentration screen), the remaining activity at 3.75 µM came to 96%.
Take `Cc1cc2nc(NCCCO)n(CC(=O)c3cc(C(C)(C)C)c(O)c(C(C)(C)C)c3)c2cc1C` [CID2858522]: the remaining activity at 1.25 µM in assay [1] (Well no.=5503, low concentration screen) is 104%. For the same molecule, the remaining activity at 3.75 µM in assay [2] (Well no.=5503, high concentration screen) is 109%.
As for `O=C(Nc1ccc(CN2CCOCC2)cc1)c1ccc(-c2cccc(Cl)c2)o1` [CID 2011756], the remaining activity at 1.25 µM in assay [1] (Well no.=6582, low concentration screen) is 97.3%. For the same molecule, the remaining activity at 3.75 µM in assay [2] (Well no.=6582, high concentration screen) came out at 101%.
Take `Cc1ccc(-c2n[nH]c3c2C(c2cccc(O)c2)N(c2ccc(C(=O)O)cc2)C3=O)cc1` (centres unmarked) [CID 16020046]: in assay [1] (Well no.=7821, low concentration screen), the remaining activity at 1.25 µM was determined as 96.2%. Further, the remaining activity at 3.75 µM in assay [2] (Well no.=7821, high concentration screen) was determined as 102%.
As for `O=S(=O)(c1ccc2c(c1)C(=NO)c1cc(S(=O)(=O)N3CCCCC3)ccc1-2)N1CCCCC1` [CIL56], the remaining activity at 1.25 µM in assay [1] (Well no.=6774, low concentration screen) was 98.2%. Moreover, the remaining activity at 3.75 µM in assay [2] (Well no.=6774, high concentration screen) came out at 95.6%.
Regarding `C[C@H](NC(=O)c1cc(Cl)ccc1Oc1ccc(F)cc1)c1ccc(C(=O)O)cc1` [CJ-42794], the remaining activity at 1.25 µM in assay [1] (Well no.=6222, low concentration screen) stood at 98%. Moreover, in assay [2] (Well no.=6222, high concentration screen), the remaining activity at 3.75 µM is 94.2%.
As for `O=C1CSC(c2cccc(Br)c2)N1c1cc(Cl)ccc1O` (centres unmarked) [CK-548], in assay [1] (Well no.=6054, low concentration screen), the remaining activity at 1.25 µM is 97.5%. In addition, the remaining activity at 3.75 µM in assay [2] (Well no.=6054, high concentration screen) was determined as 96.3%.
Take `Cc1[nH]c2ccccc2c1CCNC(=O)c1cccs1` [CK-636]: the remaining activity at 1.25 µM in assay [1] (Well no.=5636, low concentration screen) is 102%. Further, the remaining activity at 3.75 µM in assay [2] (Well no.=5636, high concentration screen) was 100%.
On to `Cc1[nH]c2ccccc2c1CCNC(=O)c1ccccc1F` [CK-666], for which, in assay [1] (Well no.=5720, low concentration screen), the remaining activity at 1.25 µM came out at 95.1%. The remaining activity at 3.75 µM in assay [2] (Well no.=5720, high concentration screen) stood at 95.4%.
`C[C@H](Cc1ccc2c(c1)OC(C(=O)O)(C(=O)O)O2)NC[C@H](O)c1cccc(Cl)c1` [CL 316,243]: the remaining activity at 1.25 µM in assay [1] (Well no.=276, low concentration screen) was 96.9%. Besides, the remaining activity at 3.75 µM in assay [2] (Well no.=276, high concentration screen) was found to be 101%.
As to `N#C[C@H]1[C@H](O)[C@@H](CO)O[C@H]1n1ccc(N)nc1=O` [CNDAC (hydrochloride)], the remaining activity at 1.25 µM in assay [1] (Well no.=7866, low concentration screen) was determined as 91.6%. Besides, the remaining activity at 3.75 µM in assay [2] (Well no.=7866, high concentration screen) turned out to be 94.8%.
As to `N#Cc1cc2nc(O)c(O)nc2cc1[N+](=O)[O-]` [CNQX disodium], the remaining activity at 1.25 µM in assay [1] (Well no.=681, low concentration screen) was 101%. In addition, the remaining activity at 3.75 µM in assay [2] (Well no.=681, high concentration screen) is 102%.
As to `CCc1cccc(N(C)C(=N)Nc2cccc3ccccc23)c1` [CNS-1102], the remaining activity at 1.25 µM in assay [1] (Well no.=366, low concentration screen) came out at 99.2%. Besides, the remaining activity at 3.75 µM in assay [2] (Well no.=366, high concentration screen) was determined as 100%.
Regarding `S=C(N/N=C1\CCCc2cccnc21)N1CCN(c2ccccn2)CC1` [COTI-2], the remaining activity at 1.25 µM in assay [1] (Well no.=6156, low concentration screen) was found to be 109%. The remaining activity at 3.75 µM in assay [2] (Well no.=6156, high concentration screen) came to 110%.
With `CCCCCCC(C)(C)c1ccc([C@@H]2C[C@H](O)CC[C@H]2CCCO)c(O)c1` [CP55940], the remaining activity at 1.25 µM in assay [1] turned out to be 104%. The remaining activity at 3.75 µM in assay [2] was determined as 106%.
For `COCCOc1ccc2c(c1)ncn2-c1ccc2cccc(N3CCC(N)CC3)c2n1` [CP 673451], the remaining activity at 1.25 µM in assay [1] (Well no.=5285, low concentration screen) worked out at 97.9%. Also, the remaining activity at 3.75 µM in assay [2] (Well no.=5285, high concentration screen) stood at 102%.
On to `C[C@@H]([C@@H](O)c1ccc(O)cc1)N1CCC(O)(c2ccccc2)CC1` [CP-101,606], for which the remaining activity at 1.25 µM in assay [1] (Well no.=5843, low concentration screen) stood at 94.8%. Also, the remaining activity at 3.75 µM in assay [2] (Well no.=5843, high concentration screen) was 93.1%.
As for `Nc1nc2ccc(Cl)cc2n2c(-c3ccccc3)nnc12` [CP-66713], the remaining activity at 1.25 µM in assay [1] (Well no.=5624, low concentration screen) turned out to be 96.6%. Moreover, the remaining activity at 3.75 µM in assay [2] (Well no.=5624, high concentration screen) was 96%.
`CN(C)C(=O)[C@H](O)[C@H](Cc1ccccc1)NC(=O)c1cc2cc(Cl)ccc2[nH]1` [CP-91149]: the remaining activity at 1.25 µM in assay [1] (Well no.=5021, low concentration screen) was 101%. Further, the remaining activity at 3.75 µM in assay [2] (Well no.=5021, high concentration screen) came to 104%.
As to `COc1ccccc1CN[C@H]1C2CCN(CC2)[C@H]1C(c1ccccc1)c1ccccc1` [CP-96345], the remaining activity at 1.25 µM in assay [1] (Well no.=5867, low concentration screen) stood at 97.7%. For the same molecule, the remaining activity at 3.75 µM in assay [2] (Well no.=5867, high concentration screen) turned out to be 96.7%.
For `C[C@@H]([C@@H](O)c1ccc(O)cc1)N1CCC(O)(c2ccccc2)CC1` [CP-101606 mesylate], the remaining activity at 1.25 µM in assay [1] (Well no.=5955, low concentration screen) came to 98.1%. Besides, the remaining activity at 3.75 µM in assay [2] (Well no.=5955, high concentration screen) is 98.9%.
In the case of `COc1cc2ncnc(-n3nc(-c4ccccn4)nc3N)c2cc1OC` [CP-466722], the remaining activity at 1.25 µM in assay [1] (Well no.=5158, low concentration screen) amounted to 103%. In addition, the remaining activity at 3.75 µM in assay [2] (Well no.=5158, high concentration screen) was 101%.
With `COCC(=O)NC/C=C/c1ccc2ncnc(Nc3ccc(Oc4ccc(C)nc4)c(C)c3)c2c1` [CP-724714], in assay [1] (Well no.=2837, low concentration screen), the remaining activity at 1.25 µM came out at 103%. Further, the remaining activity at 3.75 µM in assay [2] (Well no.=2837, high concentration screen) is 103%.
Regarding `Clc1cccc(COc2cncc(N3CCNCC3)n2)c1` [CP-809101 (hydrochloride)], the remaining activity at 1.25 µM in assay [1] (Well no.=7851, low concentration screen) came out at 95.1%. The remaining activity at 3.75 µM in assay [2] (Well no.=7851, high concentration screen) is 83.3%.
As for `Cc1sc2c(c1C)C(c1ccc(Cl)cc1)=N[C@@H](CC(N)=O)c1nnc(C)n1-2` [CPI203], the remaining activity at 1.25 µM in assay [1] (Well no.=5824, low concentration screen) was 99.9%. For the same molecule, the remaining activity at 3.75 µM in assay [2] (Well no.=5824, high concentration screen) was 98%.
As to `Cc1ccc(-c2nc(N)nc3c2nnn3Cc2cccc(CO[C@H]3CCOC3)n2)o1` [CPI-444], in assay [1] (Well no.=8549, low concentration screen), the remaining activity at 1.25 µM was 105%. The remaining activity at 3.75 µM in assay [2] (Well no.=8549, high concentration screen) is 97%.
As for `O=C(O)CCCCC(CCSCc1ccccc1)SCc1ccccc1` (centres unmarked) [CPI-613], the remaining activity at 1.25 µM in assay [1] (Well no.=5083, low concentration screen) amounted to 97.7%. The remaining activity at 3.75 µM in assay [2] (Well no.=5083, high concentration screen) stood at 88.8%.
Take `O=C(Nc1ccc(Cl)cc1CN1C(=O)c2ccccc2C1=O)c1ccccc1O` [CPPHA]: the remaining activity at 1.25 µM in assay [1] (Well no.=7243, low concentration screen) amounted to 101%. Moreover, the remaining activity at 3.75 µM in assay [2] (Well no.=7243, high concentration screen) was found to be 97.3%.
With `CC[C@@H](CO)Nc1nc(NCc2ccc(-c3ccccn3)cc2)c2ncn(C(C)C)c2n1` [CR8, (S)-Isomer], the remaining activity at 1.25 µM in assay [1] (Well no.=2343, low concentration screen) worked out at 103%. For the same molecule, the remaining activity at 3.75 µM in assay [2] (Well no.=2343, high concentration screen) came out at 102%.
As for `CC1(C)CCC(NC(=O)[C@@H](N)CCC(=O)O)CC1` [CR 2249], the remaining activity at 1.25 µM in assay [1] (Well no.=901, low concentration screen) came to 108%. Further, in assay [2] (Well no.=901, high concentration screen), the remaining activity at 3.75 µM was 105%.
Regarding `Cc1cc(C)c(NC(=O)C[C@H](CC(=O)O)c2cccc3ccccc23)c(C(=O)N2CCC3(CCCC3)CC2)c1` [CR 2945], the remaining activity at 1.25 µM in assay [1] (Well no.=1111, low concentration screen) was found to be 105%. Also, the remaining activity at 3.75 µM in assay [2] (Well no.=1111, high concentration screen) worked out at 98.1%.
On to `CC[C@@H](N)CNc1ccnc(-c2cc(-c3cnn(C)c3)ccc2O)n1` [CRT0066101 dihydrochloride], for which the remaining activity at 1.25 µM in assay [1] (Well no.=6498, low concentration screen) amounted to 89.1%. Moreover, the remaining activity at 3.75 µM in assay [2] (Well no.=6498, high concentration screen) came out at 90.1%.
With `C#Cc1cccc(Nc2ncnc3cc(OC)c(OCCCCCCC(=O)NO)cc23)c1` [CUDC-101], the remaining activity at 1.25 µM in assay [1] (Well no.=5097, low concentration screen) was determined as 104%. In addition, in assay [2] (Well no.=5097, high concentration screen), the remaining activity at 3.75 µM is 108%.

For the origin of these results see publication PMC8286840, “Identifying SARS-CoV-2 antiviral compounds by screening for small molecule inhibitors of Nsp3 papain-like protease” (Biochemical Journal, 2021).
